Patent publication US5023338A, “Renin inhibitors” (American Home Products Corporation, priority 1990, dated 1991)

Columns and labels:
renin = molecular target: T1, renin (Homo sapiens, UniProt P00797); test: in vitro inhibition of renin, radio immunoassay detection of Angiotensin I from an angiotensinogen-like substrate; format: biochemical; details: 10^-6 M concentration of test compound
T1 sequence (P00797 67-406): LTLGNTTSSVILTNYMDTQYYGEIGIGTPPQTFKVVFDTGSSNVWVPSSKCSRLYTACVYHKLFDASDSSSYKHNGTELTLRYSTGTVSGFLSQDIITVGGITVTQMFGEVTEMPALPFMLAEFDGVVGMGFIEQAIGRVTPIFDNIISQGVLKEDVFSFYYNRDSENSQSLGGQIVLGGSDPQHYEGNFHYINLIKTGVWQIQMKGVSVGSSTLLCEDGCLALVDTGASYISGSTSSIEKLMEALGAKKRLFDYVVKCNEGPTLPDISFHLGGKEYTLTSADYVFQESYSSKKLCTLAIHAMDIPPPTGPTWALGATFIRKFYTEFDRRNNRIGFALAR
Text: The potent in vitro inhibition of the aspartyl protease renin was established using standard radio immunoassay techniques for the detection of Angiotensin I from an angiotensinogen-like substrate [Haber et al. (1969), J. Clin. Endocrinol. 29, 1349]. The results of these standard test procedures appears at the end of each Example of preparation of the relevant compound, as the percent inhibition of renin activity at […] concentration of test compound. The compounds of this invention have also shown strong resistance to breakdown by degradative enzymes such as chymotrypsin, following the procedure of Thaisrivongs et al. (1987) J. Med. Chem. 30, 536-541. […] Even after a 24 hour incubation, 68% of the compound of Example 1 remained. In accord with their ability to inhibit the enzyme renin, the compounds of this invention show plasma renin lowering effects and an antihypertensive action in a furosemide-stimulated high-renin model [De […]. et al. (1985), J. Cardiovascular Pharmacology 7, (Suppl. 4), S58-S61] with conscious rhesus monkeys, utilizing intravenous as well as oral dosing. For example, the product of Example 1 administered at 5 mg/kg iv lowered plasma renin activity (PRA) from 45 ng/ml/min to 5 ng/ml/min one half hour post-administration. Mean arterial pressure (MAP) was lowered 25 mm in that time period.

[1] = resistance to breakdown on incubation with chymotrypsin; format: in vitro ADME; details: read-out: remaining compound after incubation with chymotrypsin; for remaining at 1 h: incubation for one hour
Text: The potent in vitro inhibition of the aspartyl protease renin was established using standard radio immunoassay techniques for the detection of Angiotensin I from an angiotensinogen-like substrate [Haber et al. (1969), J. Clin. Endocrinol. 29, 1349]. The results of these standard test procedures appears at the end of each Example of preparation of the relevant compound, as the percent inhibition of renin activity at […] concentration of test compound. The compounds of this invention have also shown strong resistance to breakdown by degradative enzymes such as chymotrypsin, following the procedure of Thaisrivongs et al. (1987) J. Med. Chem. 30, 536-541. For example, the compound of Example 1 was nearly unchanged upon incubation with chymotrypsin for one hour (93% remaining compound) whereas Boc-Phe Leu-ACHBA-OMe was extensively degraded (22% remaining compound) in the same time period. Even after a 24 hour incubation, 68% of the compound of Example 1 remained. In accord with their ability to inhibit the enzyme renin, the compounds of this invention show plasma renin lowering effects and an antihypertensive action in a furosemide-stimulated high-renin model [De Claviere, M. et al. (1985), J. Cardiovascular Pharmacology 7, (Suppl. 4), S58-S61] with conscious rhesus monkeys, utilizing intravenous as well as oral dosing. For example, the product of Example 1 administered at 5 mg/kg iv lowered plasma renin activity (PRA) from 45 ng/ml/min to 5 ng/ml/min one half hour post-administration. Mean arterial pressure (MAP) was lowered 25 mm in that time period.

[2] = system: conscious rhesus monkeys (furosemide-stimulated high-renin model); test: furosemide-stimulated high-renin model with conscious rhesus monkeys; format: in vivo
[3] = orally at 50 ng/kg, one-half hour post-administration

Molecule	% I, percent inhibition of renin activity (renin) [%]	further results
COC(=O)C(O)C(CC1CCCCC1)NC(=O)[C@H](Cc1c[nH]cn1)NC(=O)[C@H](Cc1ccccc1)N1C(=O)c2ccccc2C1=O (stereo partly drawn) [Example 7, Beta-[[2-[[2-(1,3-dihydro-1,3-dioxo-2H-isoindol-2-yl)-1-oxo-3-phenylpropyl]amino]-3-(1H-imidazol-4-yl)-1-oxopropyl]amino]-alphahydroxycyclohexanebutanoic acid methyl ester]	9	–
COC(=O)C(O)C(CC1CCCCC1)NC(=O)[C@H](Cc1c[nH]cn1)NC(=O)[C@H](Cc1ccccc1)N1Cc2ccccc2C1=O (stereo partly drawn) [Example 4, Beta-[[2-[[2-(1,3-dihydro-1-oxo-2H-isoindol-2-yl)-1-oxo-3-phenylpropyl]amino]-3-(1H-imidazol-4-yl)-1-oxopropyl]amino]-alpha-hydroxycyclohexane butanoic acid methyl ester]	84	–
CCCC[C@H](NC(=O)[C@H](Cc1ccccc1)N1Cc2ccccc2C1=O)C(=O)NC(CC1CCCCC1)C(O)C(=O)OC(C)C (stereo partly drawn) [Example 12, Beta-[[2-[[2-[1,3-dihydro-1-oxo-2H-isoindol-2-yl]-1-oxo-3-phenylpropyl]amino]-1-oxo-hexyl]amino]-alphahydroxycyclohexanebutanoic acid 1-methylethyl ester]	99	–
COC(=O)C(O)C(CC1CCCCC1)NC(=O)[C@H](CC(C)C)NC(=O)[C@H](Cc1ccccc1)N1CC(C)(C)OC1=O (stereo partly drawn) [Example 10, Beta-[[2-[[2-[5,5-dimethyl-2-oxo-3-oxazolidinyl]-1-oxo-3-phenylpropyl]amino]-4-methyl-1-oxo-pentyl]amino]-alphahydroxycyclohexanebutanoic acid methyl ester]	86	–
CC(C)C[C@H](NC(=O)[C@H](Cc1ccccc1)N1C[C@@H]2CCCN2C1=O)C(=O)NC(CC1CCCCC1)C(O)C(=O)OC(C)C (stereo partly drawn) [Example 16, Beta-[[2-[[2-[(7aS)-tetrahydro-3-oxo-1H-pyrrolo[1,2-c]imidazol-2(3H)-yl]-1-oxo-3-phenylpropyl]amino]-4-methyl-1-oxo-pentyl]amino]-alpha-hydroxycyclohexanebutanoic acid 1-methylethyl ester]	91	–
COC(=O)C(O)C(CC1CCCCC1)NC(=O)[C@H](CC(C)C)NC(=O)[C@H](Cc1ccccc1)N1Cc2ccccc2C1=O (stereo partly drawn) [Example 1, Beta-[[2-[[2-[1,3-dihydro-1-oxo-2H-isoindol-2-yl]-1-oxo-3-phenylpropyl]amino]-4-methyl-1-oxo-pentyl]amino]-alpha-hydroxycyclohexanebutanoic acid methyl ester]	97	remaining at 24 h ([1]; 24 hour incubation): 68%; remaining at 1 h [1]: 93%; lowering of mean arterial pressure (MAP) ([2]; 5 mg/kg iv, one half hour post-administration): 25 mm; plasma renin activity (PRA) after administration ([2]; 5 mg/kg iv, one half hour post-administration, lowered from 45 ng/ml/min): 5 ng/mL/min; change in MAP [2, 3]: no significant change; decrease of PRA [2, 3]: 50%
COC(=O)C(O)C(CC1CCCCC1)NC(=O)[C@H](CC(C)C)NC(=O)[C@H](Cc1ccccc1)N1C(=O)c2cccc3cccc(c23)C1=O (some centres unmarked) [Example 8]	74	–
COC(=O)C(O)C(CC1CCCCC1)NC(=O)[C@H](CC(C)C)NC(=O)[C@H](Cc1ccccc1)N1Cc2ncccc2C1=O (stereo partly drawn) [Example 3, Beta-[[2-[[-2-(1,3-dihydro-1-oxo-2H-pyrrolo[3,4-b]pyridin-2-yl)-1-oxo-3-phenylpropyl]amino]-4-methyl-1-oxopentyl]amino]-alpha-hydroxycyclohexanebutanoic acid methyl ester]	89	–
CC(C)C[C@H](NC(=O)[C@H](Cc1ccccc1)N1CCCC1=O)C(=O)NC(CC1CCCCC1)C(O)C(=O)OC(C)C (stereo partly drawn) [Example 14, Beta-[[2-[[2-[2-oxo-1-pyrrolidinyl]-1-oxo-3-phenylpropyl]amino]-4-methyl-1-oxo-pentyl]amino]-alpha-hydroxycyclohexanebutanoic acid 1-methylethyl ester]	93	–
CC(C)C[C@H](NC(=O)[C@H](Cc1ccccc1)N1Cc2ccccc2C1=O)C(=O)NC(CC1CCCCC1)C(O)C(=O)OC(C)C (single isomer, unassigned) [Example 2 Diastereomer A, Beta-[[2-[[2-[1,3-dihydro-1-oxo-2H-isoindol-2-yl]-1-oxo-3-phenylpropyl]amino]-4-methyl-1-oxo-pentyl]amino]-alpha-hydroxycyclohexanebutanoic acid 1-methylethyl ester]	98	–
COC(=O)C(O)C(CC1CCCCC1)NC(=O)[C@H](CC(C)C)NC(=O)[C@H](Cc1ccccc1)N1C(=O)OC(C)(C)C1C (stereo partly drawn) [Example 9, Beta-[[2-[[2-[4,5,5-trimethyl-2-oxo-3-oxazolidinyl]-1-oxo-3-phenylpropyl]amino]-4-methyl-1-oxo-pentyl]amino]-alphahydroxycyclohexanebutanoic acid methyl ester]	76	–
CC(C)C[C@H](NC(=O)[C@H](Cc1ccccc1)N1Cc2cccc3cccc(c23)C1=O)C(=O)NC(CC1CCCCC1)C(O)C(=O)OC(C)C (stereo partly drawn) [Example 13, Beta-[[2-[[2-[1,3-dihydro-1-oxo-2H-benzisoquinolin-2-yl]-1-oxo-3-phenylpropyl]amino]-4-methyl-1-oxo-pentyl]amino]-alphahydroxycyclohexanebutanoic acid 1-methylethyl ester]	92	–
CCC[C@H](NC(=O)[C@H](Cc1ccccc1)N1Cc2ccccc2C1=O)C(=O)NC(CC1CCCCC1)C(O)C(=O)OC(C)C (stereo partly drawn) [Example 11, Beta-[[2-[[2-[1,3-dihydro-1-oxo-2H-isoindol-2-yl]-1-oxo-3-phenylpropyl]amino]-1-oxo-pentyl]amino]-alphahydroxycyclohexanebutanoic acid 1-methylethyl ester]	99	–
Beta-[[2-[[2-[5-oxo-5H-imidazo[1,2-a]imidazol-6(7H)-yl]-1-oxo-3-phenylpropyl]amino]-4-methyl-1-oxo-pentyl]amino]-alpha-hydroxycyclohexanebutanoic acid 1-methylethyl ester [Example 15]	96	–
CC(C)OC(=O)C(O)C(CC1CCCCC1)NC(=O)[C@H](Cc1c[nH]cn1)NC(=O)[C@H](Cc1ccccc1)N1Cc2ccccc2C1=O (stereo partly drawn) [Example 5, Beta-[[2-[[2-(1,3-dihydro-1-oxo-2H-isoindol-2-yl)-1-oxo-3-phenylpropyl]amino]-3-(1H-imidazol-4-yl)-1-oxopropyl]amino]-alphahydroxycyclohexanebutanoic acid 1-methylethyl ester]	83	–
COC(=O)C(O)C(CC1CCCCC1)NC(=O)[C@H](CC(C)C)NC(=O)[C@H](Cc1ccccc1)NC(=O)OC(C)(C)C (stereo partly drawn) [Boc-Phe Leu-ACHBA-OMe, N-tertiary butyloxycarbonyl-Phe-Leu-3-amino-4-cyclohexyl-2-hydroxybutanoic acid methyl ester, reference compound]	–	remaining at 1 h [1]: 22%
COC(=O)C(O)C(CC1CCCCC1)NC(=O)[C@H](CC(C)C)NC(=O)[C@H](Cc1ccccc1)N1C(=O)c2ccccc2C1=O (stereo partly drawn) [Example 6, Beta-[[2-[[2-(1,3-dihydro-1,3-dioxo-2H-isoindol-2-yl)-1-oxo-3-phenylpropyl]amino]-4-methyl-1-oxopentyl]amino]-alphahydroxycyclohexanebutanoic acid methyl ester]	45	–
